Assay results taken from patent US20240174624A1, “CHIRAL N-(1,3,4-OXADIAZOLE-2-YL)PHENYL CARBOXYLIC ACID AMIDES AND THEIR USE AS HERBICIDES” (Bayer Aktiengesellschaft, priority 2021, published 2024).

Columns and labels:
TRZAS = assay: Post-emergence damage to crop plants; assay type: in vivo, Triticum aestiva; details: 5 g a.i./ha, comparative experiment
Procedure: (§1) Seeds of monocotyledonous and dicotyledonous weed and crop plants are laid out in sandy loam soil in wood-fibre pots, covered with soil and cultivated in a greenhouse under good growth conditions. 2 to 3 weeks after sowing, the test plants are treated at the one-leaf stage. The compounds of the invention, formulated in the form of wettable powders (WP) or as emulsion concentrates (EC), are then sprayed onto the green parts of the plants in the form of an aqueous suspension or emulsion at a water application rate equating to 600 to 800 l/ha, with addition of 0.2% wetting agent. After the test plants have been left to stand in the greenhouse under optimal growth conditions for about 3 weeks, the action of the preparations is assessed visually in comparison to untreated controls (herbicidal action in percent (%): 100% activity=the plants have died, 0% activity=like control plants). […] The tables below illustrate, in an illustrative manner, the post-emergence herbicidal action of the compounds of the invention, the herbicidal activity being stated in percent. In the experiments that follow, the herbicidal action of the compounds of the invention and that of the corresponding known racemic compounds closest from WO2012126932 and WO2018202535 were compared under the above-specified conditions by the pre-emergence and post-emergence method. The example numbers given in the tables relate to the compounds disclosed in the respective documents.

SETVI [1] = assay: Post-emergence herbicidal action; assay type: in vivo, Setaria viridis; details: for Herbicidal action against SETVI: 5 g a.i./ha, comparative experiment; for Post-emergence action against SETVI: assessed after about 3 weeks
Procedure: as §1

GLXMA = assay: Post-emergence damage to crop plants; assay type: in vivo, Glycine max; details: 5 g a.i./ha, comparative experiment
Procedure: as §1, with “The example numbers given in the tables relate to the compounds disclosed in the respective documents.” left out

ECHCG [2] = assay: Post-emergence herbicidal action; assay type: in vivo, Echinochloa crus-galli; details: for Post-emergence action against ECHCG: assessed after about 3 weeks
Procedure: as §1

VIOTR [3] = assay: Post-emergence herbicidal action; assay type: in vivo, Viola tricolor; details: for Herbicidal action against VIOTR: comparative experiment; for Post-emergence action against VIOTR: assessed after about 3 weeks
Procedure: as §1

BRSNW = assay: Pre-emergence damage to crop plants; assay type: in vivo, Brassica napus; details: 20 g a.i./ha, comparative experiment
From the text: (§2) Seeds of monocotyledonous and dicotyledonous weed plants and crop plants are laid out in sandy loam soil in wood-fibre pots and covered with soil. The compounds of the invention, formulated in the form of wettable powders (WP) or as emulsion concentrates (EC), are then applied to the surface of the covering soil in the form of an aqueous suspension or emulsion at a water application rate equivalent to 600 to 800 l/ha, with addition of 0.2% wetting agent. After the treatment, the pots are placed in a greenhouse and kept under good growth conditions for the trial plants. The damage to the test plants is scored visually after a test period of 3 weeks by comparison with untreated controls (herbicidal activity in percent (%): 100% activity=the plants have died, 0% activity=like control plants). […] The tables below illustrate, in an illustrative manner, the post-emergence herbicidal action of the compounds of the invention, the herbicidal activity being stated in percent. In the experiments that follow, the herbicidal action of the compounds of the invention and that of the corresponding known racemic compounds closest from WO2012126932 and WO2018202535 were compared under the above-specified conditions by the pre-emergence and post-emergence method. The example numbers given in the tables relate to the compounds disclosed in the respective documents.

ZEAMX = assay: Pre-emergence damage to crop plants; assay type: in vivo, Zea mays; details: comparative experiment
From the text: as §2

MATIN [4] = assay: Pre-emergence herbicidal action; assay type: in vivo, Matricaria inodora; details: for Pre-emergence action against MATIN: scored after 3 weeks
From the text: as §2

SETVI [5] = assay: Pre-emergence herbicidal action; assay type: in vivo, Setaria viridis; details: for Pre-emergence action against SETVI: scored after 3 weeks
From the text: as §2

CYPES [6] = assay: Pre-emergence herbicidal action; assay type: in vivo, Cyperus esculentus; details: 20 g a.i./ha, comparative experiment
From the text: as §2

AVEFA = assay: Pre-emergence herbicidal action; assay type: in vivo, Avena fatua
From the text: as §2

ALOMY = assay: Pre-emergence herbicidal action; assay type: in vivo, Alopecurus myosuroides
From the text: as §2

CYPES [7] = assay: Post-emergence herbicidal action; assay type: in vivo, Cyperus esculentus; details: 20 g a.i./ha, comparative experiment
Procedure: as §1, with “The example numbers given in the tables relate to the compounds disclosed in the respective documents.” left out

MATIN [8] = assay: Post-emergence herbicidal action; assay type: in vivo, Matricaria inodora; details: assessed after about 3 weeks
Procedure: as §1, with “percent.” for “percent. In the experiments that follow, the herbicidal action of the compounds of the invention and that of the corresponding known racemic compounds closest from WO2012126932 and WO2018202535 were compared under the above-specified conditions by the pre-emergence and post-emergence method. The example numbers given in the tables relate to the compounds disclosed in the respective documents.”

ECHCG [9] = assay: Pre-emergence herbicidal action; assay type: in vivo, Echinochloa crus-galli; details: scored after 3 weeks
From the text: as §2, with “percent.” for “percent. In the experiments that follow, the herbicidal action of the compounds of the invention and that of the corresponding known racemic compounds closest from WO2012126932 and WO2018202535 were compared under the above-specified conditions by the pre-emergence and post-emergence method. The example numbers given in the tables relate to the compounds disclosed in the respective documents.”

STEME [10] = assay: Post-emergence herbicidal action; assay type: in vivo, Stellaria media; details: 5 g a.i./ha, comparative experiment
Procedure: as §1

PHBPU [11] = assay: Post-emergence herbicidal action; assay type: in vivo, Pharbitis purpurea; details: 20 g/ha, assessed after about 3 weeks
Procedure: as §1, with “percent.” for “percent. In the experiments that follow, the herbicidal action of the compounds of the invention and that of the corresponding known racemic compounds closest from WO2012126932 and WO2018202535 were compared under the above-specified conditions by the pre-emergence and post-emergence method. The example numbers given in the tables relate to the compounds disclosed in the respective documents.”

AMARE [12] = assay: Pre-emergence herbicidal action; assay type: in vivo, Amaranthus retroflexus; details: scored after 3 weeks
From the text: as §2, with “percent.” for “percent. In the experiments that follow, the herbicidal action of the compounds of the invention and that of the corresponding known racemic compounds closest from WO2012126932 and WO2018202535 were compared under the above-specified conditions by the pre-emergence and post-emergence method. The example numbers given in the tables relate to the compounds disclosed in the respective documents.”

VIOTR [13] = assay: Pre-emergence herbicidal action; assay type: in vivo, Viola tricolor; details: 80 g/ha, scored after 3 weeks
From the text: as §2, with “percent.” for “percent. In the experiments that follow, the herbicidal action of the compounds of the invention and that of the corresponding known racemic compounds closest from WO2012126932 and WO2018202535 were compared under the above-specified conditions by the pre-emergence and post-emergence method. The example numbers given in the tables relate to the compounds disclosed in the respective documents.”

VERPE [14] = assay: Pre-emergence herbicidal action; assay type: in vivo, Veronica persica; details: for Herbicidal action against VERPE: comparative experiment; for Pre-emergence action against VERPE: scored after 3 weeks
From the text: as §2

PHBPU [15] = assay: Pre-emergence herbicidal action; assay type: in vivo, Pharbitis purpurea; details: 80 g/ha, scored after 3 weeks
From the text: as §2, with “percent.” for “percent. In the experiments that follow, the herbicidal action of the compounds of the invention and that of the corresponding known racemic compounds closest from WO2012126932 and WO2018202535 were compared under the above-specified conditions by the pre-emergence and post-emergence method. The example numbers given in the tables relate to the compounds disclosed in the respective documents.”

STEME [16] = assay: Pre-emergence herbicidal action; assay type: in vivo, Stellaria media; details: comparative experiment
From the text: as §2

AMARE [17] = assay: Post-emergence herbicidal action; assay type: in vivo, Amaranthus retroflexus; details: assessed after about 3 weeks
Procedure: as §1, with “percent.” for “percent. In the experiments that follow, the herbicidal action of the compounds of the invention and that of the corresponding known racemic compounds closest from WO2012126932 and WO2018202535 were compared under the above-specified conditions by the pre-emergence and post-emergence method. The example numbers given in the tables relate to the compounds disclosed in the respective documents.”

VERPE [18] = assay: Post-emergence herbicidal action; assay type: in vivo, Veronica persica
Procedure: as §1

POLCO = assay: Pre-emergence herbicidal action; assay type: in vivo, Polygonum convolvulus; details: 320 g a.i./ha, comparative experiment
From the text: as §2

[19] = 20 g a.i./ha, comparative experiment

Cc1nnc(NC(=O)c2ccc(C(F)F)c([S+](C)[O-])c2Cl)o1 (racemic) [7-48 from WO2018202535, 2-chloro-N-(5-methyl-1,3,4-oxadiazol-2-yl)-3-[(rac)-methylsulfinyl]-4-(difluoromethyl)benzamide, reference compound]
Damage to TRZAS (TRZAS): 40% | Herbicidal action against SETVI (SETVI [1]): 80% | Damage to GLXMA (GLXMA): 60% | Herbicidal action against ECHCG (ECHCG [2]; [19]): 80% | Herbicidal action against VIOTR (VIOTR [3]; 5 g a.i./ha): 60% | Herbicidal action against VIOTR (VIOTR [3]; 20 g a.i./ha): 80% | Damage to BRSNW (BRSNW): 80% | Damage to ZEAMX (ZEAMX; 80 g a.i./ha): 50%

Cc1nnc(NC(=O)c2ccc(C(F)(F)F)c([S+](C)[O-])c2Cl)o1 (stereo in doubt) [Example I-5, 2-chloro-N-(5-methyl-1,3,4-oxadiazol-2-yl)-3-[(S)-methylsulfinyl]-4-(trifluoromethyl)benzamide]
Herbicidal action against MATIN (MATIN [4]; [19]): 90% | Pre-emergence action against MATIN (MATIN [4]; 20 g/ha): 80% | Pre-emergence action against MATIN (MATIN [4]; 80 g/ha): 100% | Pre-emergence action against SETVI (SETVI [5]; 5 g/ha): 80% | Herbicidal action against SETVI (SETVI [5]; [19]): 100% | Pre-emergence action against SETVI (SETVI [5]; 20 g/ha): 100% | Pre-emergence action against SETVI (SETVI [5]; 80 g/ha): 100% | Herbicidal action against SETVI (SETVI [1]): 100% | Post-emergence action against SETVI (SETVI [1]; 5 g/ha): 80% | Post-emergence action against SETVI (SETVI [1]; 20 g/ha): 100% | Herbicidal action against CYPES (CYPES [6]): 90% | Herbicidal action against AVEFA (AVEFA; [19]): 90% | Pre-emergence action against AVEFA (AVEFA; 80 g/ha, scored after 3 weeks): 80% | Herbicidal action against ALOMY (ALOMY; [19]): 60% | Pre-emergence action against ALOMY (ALOMY; 80 g/ha, scored after 3 weeks): 80% | Herbicidal action against CYPES (CYPES [7]): 80% | Post-emergence action against ECHCG (ECHCG [2]; 5 g/ha): 90% | Post-emergence action against ECHCG (ECHCG [2]; 20 g/ha): 100% | Post-emergence action against MATIN (MATIN [8]; 5 g/ha): 80% | Post-emergence action against MATIN (MATIN [8]; 20 g/ha): 90% | Pre-emergence action against ECHCG (ECHCG [9]; 20 g/ha): 100% | Pre-emergence action against ECHCG (ECHCG [9]; 80 g/ha): 100% | Post-emergence action against VIOTR (VIOTR [3]; 5 g/ha): 100% | Post-emergence action against VIOTR (VIOTR [3]; 20 g/ha): 100% | Herbicidal action against STEME (STEME [10]): 80% | Post-emergence action against PHBPU (PHBPU [11]): 90% | Pre-emergence action against AMARE (AMARE [12]; 20 g/ha): 90% | Pre-emergence action against AMARE (AMARE [12]; 80 g/ha): 100% | Pre-emergence action against VIOTR (VIOTR [13]): 100% | Herbicidal action against VERPE (VERPE [14]; 20 g a.i./ha): 30% | Pre-emergence action against VERPE (VERPE [14]; 20 g/ha): 80% | Herbicidal action against VERPE (VERPE [14]; 80 g a.i./ha): 100% | Pre-emergence action against VERPE (VERPE [14]; 80 g/ha): 100% | Pre-emergence action against PHBPU (PHBPU [15]): 100% | Herbicidal action against STEME (STEME [16]; 20 g a.i./ha): 100% | Herbicidal action against STEME (STEME [16]; 80 g a.i./ha): 100% | Herbicidal action against STEME (STEME [16]; 320 g a.i./ha): 100% | Post-emergence action against AMARE (AMARE [17]; 5 g/ha): 100% | Post-emergence action against AMARE (AMARE [17]; 20 g/ha): 100% | Herbicidal action against VERPE (VERPE [18]; 5 g a.i./ha, comparative experiment): 40% | Post-emergence action against VERPE (VERPE [18]; 20 g/ha, assessed after about 3 weeks): 90% | Herbicidal action against POLCO (POLCO): 80% | Herbicidal action against ZEAMX (ZEAMX; 320 g a.i./ha): 40%
